According to the CheMixHub viscosity set:

Assay: xn = mol fraction of the nth substance listed

CCNCC + CCCCCCCCCCO
viscosity [mPa·s], 101 kPa
Settings | x1 = 0.5973 | x2 = 0.0971 | x2 = 0.1985 | x2 = 0.2971 | x2 = 0.4003 | x2 = 0.5148 | x2 = 0.6024 | x2 = 0.7216 | x2 = 0.8014 | x2 = 0.8997
298.15 K | – | 0.472 | 0.762 | 1.184 | 1.834 | 2.865 | 3.979 | 5.858 | 7.47 | 9.664
303 K | 2.015 | – | – | – | – | – | – | – | – | –
313.15 K | – | 0.378 | 0.576 | 0.851 | 1.254 | 1.87 | 2.556 | 3.617 | 4.497 | 5.631

Nc1ccccc1 + CCCCCCCCCCO
viscosity [mPa·s], 100 kPa
Settings | x1 = 0.0718 | x1 = 0.1593 | x1 = 0.2335 | x1 = 0.3471 | x1 = 0.4452 | x1 = 0.5618 | x1 = 0.6428 | x1 = 0.7439 | x1 = 0.8518 | x1 = 0.9439
293.15 K | 12.8 | 11.23 | 10.05 | 8.62 | 7.44 | 6.23 | 5.57 | 4.95 | 4.47 | 4.31
303.15 K | 8.75 | 7.6 | 6.85 | 5.92 | 5.25 | 4.38 | 3.94 | 3.56 | 3.23 | 3.12
313.15 K | 6.16 | 5.4 | 4.9 | 4.28 | 3.84 | 3.3 | 2.97 | 2.7 | 2.5 | 2.44
323.15 K | 4.47 | 4 | 3.65 | 3.21 | 2.89 | 2.51 | 2.28 | 2.1 | 1.95 | 1.91

CCNCC + CCCCCCCCCO
viscosity [mPa·s], 100 kPa
Settings | x1 = 0.0799 | x1 = 0.1586 | x1 = 0.2389 | x1 = 0.3485 | x1 = 0.4391 | x1 = 0.5594 | x1 = 0.649 | x1 = 0.7395 | x1 = 0.8499 | x1 = 0.9397
293.15 K | 10.36 | 9.36 | 8.35 | 7.05 | 5.99 | 4.66 | 3.71 | 2.79 | 1.71 | 0.87
303.15 K | 7.11 | 6.4 | 5.7 | 4.78 | 4.05 | 3.14 | 2.5 | 1.88 | 1.17 | 0.63
313.15 K | 5.05 | 4.53 | 4.03 | 3.37 | 2.85 | 2.21 | 1.77 | 1.34 | 0.85 | 0.49
323.15 K | 3.71 | 3.34 | 2.97 | 2.49 | 2.12 | 1.65 | 1.33 | 1.02 | 0.67 | 0.4

COCCOCCOCCOC + CCCCCCCCCO
101 kPa
Settings | viscosity [mPa·s]
293.15 K, x1 = 0.06286 | 8.733
293.15 K, x1 = 0.0721 | 8.424
293.15 K, x1 = 0.157 | 6.409
293.15 K, x1 = 0.1967 | 5.797
293.15 K, x1 = 0.3999 | 3.779
293.15 K, x1 = 0.4952 | 3.246
293.15 K, x1 = 0.5949 | 2.852
293.15 K, x1 = 0.6909 | 2.575
293.15 K, x1 = 0.7539 | 2.434
293.15 K, x1 = 0.8907 | 2.226
293.15 K, x1 = 0.9525 | 2.165
303.15 K, x1 = 0.06693 | 6.211
303.15 K, x1 = 0.08755 | 5.811
303.15 K, x1 = 0.1949 | 4.339
303.15 K, x1 = 0.2889 | 3.545
303.15 K, x1 = 0.3982 | 2.936
303.15 K, x1 = 0.4875 | 2.576
303.15 K, x1 = 0.5926 | 2.286
303.15 K, x1 = 0.698 | 2.082
303.15 K, x1 = 0.7829 | 1.952
303.15 K, x1 = 0.9059 | 1.83
303.15 K, x1 = 0.9404 | 1.795
313.15 K, x1 = 0.05997 | 4.72
313.15 K, x1 = 0.1 | 4.218
313.15 K, x1 = 0.1977 | 3.34
313.15 K, x1 = 0.2965 | 2.774
313.15 K, x1 = 0.3974 | 2.365
313.15 K, x1 = 0.4862 | 2.111
313.15 K, x1 = 0.5834 | 1.9
313.15 K, x1 = 0.6643 | 1.767
313.15 K, x1 = 0.802 | 1.635
313.15 K, x1 = 0.915 | 1.521
313.15 K, x1 = 0.9497 | 1.503

Nc1ccccc1 + CCCCCCCCCO
viscosity [mPa·s], 100 kPa
Settings | x1 = 0.0851 | x1 = 0.1597 | x1 = 0.2339 | x1 = 0.3537 | x1 = 0.4468 | x1 = 0.5616 | x1 = 0.6482 | x1 = 0.7383 | x1 = 0.8486 | x1 = 0.9448
293.15 K | 9.99 | 8.96 | 8.14 | 6.97 | 6.19 | 5.33 | 4.9 | 4.53 | 4.24 | 4.2
303.15 K | 6.9 | 6.21 | 5.58 | 4.87 | 4.36 | 3.79 | 3.46 | 3.24 | 3.06 | 3.04
313.15 K | 4.94 | 4.47 | 4.08 | 3.58 | 3.25 | 2.85 | 2.64 | 2.48 | 2.38 | 2.38
323.15 K | 3.67 | 3.35 | 3.06 | 2.71 | 2.47 | 2.19 | 2.05 | 1.94 | 1.87 | 1.88

CCNCC + CCCCCCCCO
viscosity [mPa·s], 100 kPa
Settings | x1 = 0.0804 | x1 = 0.16 | x1 = 0.2402 | x1 = 0.3517 | x1 = 0.4405 | x1 = 0.5609 | x1 = 0.65 | x1 = 0.7404 | x1 = 0.8495 | x1 = 0.9402
293.15 K | 8.22 | 7.36 | 6.53 | 5.45 | 4.61 | 3.56 | 2.82 | 2.13 | 1.33 | 0.7
303.15 K | 5.75 | 5.14 | 4.54 | 3.76 | 3.18 | 2.44 | 1.94 | 1.46 | 0.93 | 0.53
313.15 K | 4.15 | 3.7 | 3.26 | 2.69 | 2.28 | 1.75 | 1.4 | 1.06 | 0.69 | 0.42
323.15 K | 3.05 | 2.71 | 2.39 | 1.97 | 1.67 | 1.3 | 1.04 | 0.8 | 0.54 | 0.34
